Experimental data: patent US10010493B2, “Ester compound, and cosmetic component and cosmetic product each containing same” (Kokyu Alcohol Kogyo Co., Ltd., priority 2014, dated 2018)
“Also recorded” adds a separate entry of the source.

Tests used:
Type in all cases: physicochemical
[1] = Smoothness (MIU, MMD), KES-SE Friction Tester on artificial leather
Method: Smoothness of ester compounds was measured using KES-SE Friction Tester (Kato Tech Co., Ltd.) with a detection-unit jig (an accessory of the tester, made of silicone rubber with irregularities resembling a human finger) and artificial leather (artificial leather Supplare produced by Idemitsu Technofine Co., Ltd.). On the artificial leather, 0.1 ml of an ester compound was droped. The jig was contacted to the site on the surface of the artificial leather where the oil agent was dropped. Temperature of the leather, oil agent and jig was adjusted to 25° C. in a constant temperature bath. Then, the jig was moved back and forth once at the same site with a speed of 1 mm/s (the moving distance of the jig was approximately 80 mm in one back-and-forth movement), and a mean frictional coefficient (MIU) and a fluctuation of mean frictional coefficient (MMD) for one back-and-forth movement were measured. The measurement was performed three times and the average values of MIU and MMD were calculated, which were used as indices of smoothness. For comparison, MIU and MMD of the various ester compounds used in the viscosity measurement were also measured.

[2] = Glossiness (refractive index), Abbe refractometer NTR-2T; details: 20° C.
Method: Measurement is carried out using Abbe refractometer NTR-2T (Atago Co., Ltd.) at 20° C., and resulting values represent refractive index.

[3] = Ultraviolet absorber solubility in oily bases; details: Tinosorb S 7%; 25° C., visual after 1 week; also: key: C: Soluble; N: Insoluble; (N): Since it is insoluble when ultraviolet absorber is 3%, it is judged to be probably insoluble at 5% as well
Method: Their state after 1 week was evaluated visually.

[4] = Viscosity, Brookfield viscometer DV-II+; details: 25° C., spindle No. 2, 12 rpm
Method: Viscosity of ester compounds was measured using Brookfield viscometer DV-II+ (spindle No. 2, 12 rpm, 25° C.). As a comparison, viscosity of oil agents commonly used in cosmetic products was also measured.

[5] = Compatibility with various types of oil agent; set-up: key to Compatibility with Hydrogenated polyisobutene / Compatibility with Isononyl isononanoate / Compatibility with Neopentyl glycol diethylhexanoate / Compatibility with Triethylhexanoin / Compatibility with Octyldodecanol / Compatibility with Polyglyceryl-2 triisostearate / Compatibility with Diisostearyl malate / Compatibility with Olive oil / Compatibility with Isostearic acid / Compatibility with Cyclomethicone / Compatibility with Dimethicone (10 mm^2/s) / Compatibility with Ethanol / Compatibility with Glycerin / Compatibility with Squalane / Compatibility with Mineral oil: C: Compatible; N: Not compatible; details: for Compatibility with Cyclomethicone / Compatibility with Diisostearyl malate / Compatibility with Dimethicone (10 mm^2/s) / Compatibility with Ethanol / Compatibility with Glycerin / Compatibility with Hydrogenated polyisobutene / Compatibility with Isononyl isononanoate / Compatibility with Mineral oil / Compatibility with Neopentyl glycol diethylhexanoate / Compatibility with Octyldodecanol / Compatibility with Polyglyceryl-2 triisostearate / Compatibility with Squalane: 25° C., visual after 1 week
Method: Each of TCDNP and TCDDNP obtained in Synthesis Examples 1 and 8 and each of oily bases are combined with a weight ratio of 9:1 or 1:1, and dissolved in a water bath at 80-90° C. for approximately 30 min with stirring, then cooled to 50° C. with stirring, and stored in a thermostatic chamber at 25° C. Their compatibility was evaluated by visually checking the state after 1 week.

[6] = 25° C., 0.1 ml on artificial leather, average of three

CC(C)(C)C(=O)OCC1CC2CC1C1CCCC21 (stereo not shown) [TCDNP, tricyclo[5.2.1.0^2,6]deca-8-yl-methyl neopentanoate]
MIU (mean frictional coefficient) [1, 6]: 0.25
MMD (fluctuation of mean frictional coefficient) [1, 6]: 0.006
Smoothness in comparison with other oil agents ([1]; comparison of MIU at similar viscosity): superior smoothness than squalane; also recorded: comparable to dimethicone
Refractive index [2]: 1.479
Solubility of ultraviolet absorber Tinosorb S in the component [3]: N
Viscosity [4]: 32 mPa · s
Compatibility with the oil agents (overall) [5]: excellent compatibility with the oil agents other than glycerin
Compatibility with Cyclomethicone ([5]; 10%): C
Compatibility with Diisostearyl malate ([5]; 10%): C
Compatibility with Dimethicone (10 mm^2/s) ([5]; 10%): C
Compatibility with Ethanol ([5]; 10%): C
Compatibility with Glycerin ([5]; 10%): N
Compatibility with Hydrogenated polyisobutene ([5]; 10%): C
Compatibility with Isononyl isononanoate ([5]; 10%): C
Compatibility with Mineral oil ([5]; 10%): C
Compatibility with Neopentyl glycol diethylhexanoate ([5]; 10%): C
Compatibility with Octyldodecanol ([5]; 10%): C
Compatibility with Polyglyceryl-2 triisostearate ([5]; 10%): C
Compatibility with Squalane ([5]; 10%): C
Compatibility with Cyclomethicone ([5]; 50%): C
Compatibility with Diisostearyl malate ([5]; 50%): C
Compatibility with Dimethicone (10 mm^2/s) ([5]; 50%): C
Compatibility with Ethanol ([5]; 50%): C
Compatibility with Glycerin ([5]; 50%): N
Compatibility with Hydrogenated polyisobutene ([5]; 50%): C
Compatibility with Isononyl isononanoate ([5]; 50%): C
Compatibility with Mineral oil ([5]; 50%): C
Compatibility with Neopentyl glycol diethylhexanoate ([5]; 50%): C
Compatibility with Octyldodecanol ([5]; 50%): C
Compatibility with Polyglyceryl-2 triisostearate ([5]; 50%): C
Compatibility with Squalane ([5]; 50%): C
